From US20050256132A1, “Use of ER selective NF-kB inhibitors for the treatment of sepsis” (priority 2003, published 2005)
“And” between values parts separate entries of the source, which are not always exact repeats. Identical values can stand only once.

Key:
[1] = test system: Listeria monocytogenes; assay: Murine Listeria model, cytokine response analysis; assay type: in vivo, BALB/c mice; settings: 10^5 cells/animal iv, 24 hours after challenge, vs control
Method: Corn oil and Tween-stabilized vehicle was used as the control. All other reagents used in the experiments were purchased commercially from Sigma (St. Louis, Mo.) except for the cytokine assays which were purchased from Biosource (Camarillo, Calif.). The cytokines were measured by enzyme-linked immunoassay according to the manufacturer's instructions. The limits of detection of each assay are as follows: tumor necrosis factor α—3 pg/ml, interleukin-6—3 pg/ml, interferon gamma—1 pg/ml, monocyte chemo attractant protein—9 pg/ml. Endotoxin values were measured using a quantitative turbidometric assay (LAL5000) (Associates of Cape Cod, Woods Hole, Mass.).
The listeria model of systemic infection in mice was performed as previously described (Opal S. M., et al., Shock 15(4):285-290, 2001). Compound 67 was administered orally via an orogastric tube to BALB/c mice in an increasing dose schedule of from 1.5 mg/kg to 50 mg/kg. The BALB/c mice were purchased from Charles River Laboratories (Wilmington, Mass.). […]
For the cytokine response analysis, a standard dose of 10^5 cells/animal was administered intravenously, and cytokine measures were performed 24 hours after the intravenous challenge. […] The LD50 was calculated by the method of Reed and Meuch (Opal S. M., et al., J Infect Dis 187:70-76, 2003.).

[2] = test system: ER/NF-κB; assay: ER/NF-κB luciferase reporter in Ad5-wt-ERα infected HAECT-1 cells (Table 1); assay type: cell-based, human; settings: relative to the maximal inhibition observed with E2
Method: T-175 flasks of 100% confluent HAECT-1 cells (immortalized human aortic endothelial cells) were washed with 8 mL of HBSS (HEPES buffered saline solution) and infected for four hours with 6 mL of a 1:10 dilution of Ad5-wt-hERα virus (an adenovirus transfection vector that mediates CMV promoter driven expression of human ERα) in phenol red free Endothelial Cell Basal medium (Clonetics, San Diego Calif., Catalog # CC-3129) containing 0.25% bovine serum albumin (EBM-BSA). After four hours, cells were washed with EBM-BSA and incubated overnight in the same medium. Following overnight incubation, cells were washed with EBM-BSA and infected for 2 hours with 6 mL of a 1:10 dilution of Ad5-3x(NF-κB).Luc virus (Adenovirus luciferase expression vector driven by 3 repeats of the MHC NF-κb site 5′ to the thymidine kinase promoter) in EBM-BSA. […]
ERα infected HAECT-1 cells or control cells were thawed, diluted 42× in warm EBM-BSA, plated into 96-well plates at 0.1 mL/well and incubated for 4 hours at 34° C. […] Luciferase was determined on a Wallac Victor Luminometer (Gaithersburg, Md.) using 10 μL of lysate and mixing with 100 μL of Promega Luciferase Assay reagent. Creatine kinase was determined from the rate of increase in A340 following addition of 100 μL of CK assay reagent (Sigma, cat. No 47-10) to the remainder of the cell lysate. […]

[3] = test system: NF-κB; assay: IL-1β stimulated NF-κB reporter activity in ERα expressing HAECT-1 cells; assay type: cell-based, human; settings: ERα expressing HAECT-1 cells, FIG. 1A
Method: (§1) HAECT-1 cells (Chadwick C C, et al., Proc Natl Acad Sciences, 2005, 102(7): 2543-2548) were cultured in EGM (GIBCO, Rockville, Md.) containing 10% FBS, 1% GlutaMAX and 0.1% Antimycotic-Antibiotic in Falcon T-175 culture flasks at 34° C. in 5% CO2 and infected for four hours with Ad5-wt-ER virus. After overnight recovery, the cells were infected for 2 hours with the Ad5-3x(NFκB).Luc or Ad5-IL6.Luc virus. Compound 67 and 2 ng/ml IL-1 were added to the cells for 15-20 h and the cell lysate was assayed for luciferase activity and evaluated for CK expression (Stanbio Laboratories, Texas). The values are reported as mean±SEM with n=4 from at least 3 independent experiments.

[4] = test system: CK; assay: CK activity in lysate of ERα expressing HAECT-1 cells; assay type: cell-based, human
Method: (A) The effect of compound 67 on NF-κB mediated luciferase reporter activity in HAECT-1 cells expressing ERα. […] (C) The effect of compound 67 on the human IL-6 promoter luciferase reporter activity in HAECT-1 cells expressing either ERα (squares) or ERβ (diamonds). (D) The remaining lysate from (A) was used to determine CK activity.
as §1

SMILES: COc1ccccc1[C@H](c1cccc2ccccc12)[C@@](C)(C#N)C(=O)N1CCC(c2cccc(C(F)(F)F)c2)CC1 [Example 67, (S,S)-3-(2-methoxyphenyl)-2-methyl-3-(1-naphthyl)-2-({4-[3-(trifluoromethyl)phenyl]piperidin-1-yl}carbonyl)propanenitrile]
- cytokine levels (TNF, IL-6, MCP-1, interferon gamma) in bacteremic animals [1]: unchanged
- ER/NFκB Efficacy [2]: 100% and 86% and 90% and 92%
- efficacy compared with E2, NF-κB reporter [3]: 94%
- IC50 ([3]; Homo sapiens, HAECT1): 122 nM
- elevation of CK activity ([4]; at 1 μM): approximately 20%
- stimulation of CK expression ([4]; compared with E2, FIG. 1D): did not stimulate CK expression comparable to E2
